From US7723320B2, “Use of estrogen compounds to increase libido in women” (Pantarhei Bioscience B.V., priority 2001, dated 2010)

What was measured:
[1] = system: ovariectomized adult rats; experiment: Vaginal cornification bioassay in ovariectomized rats; assay type: in vivo, rat; settings: 0.05 mg/kg/day
Description: Uterine weight increase in the rat is more commonly used as a measure of estrogenicity. […] In the early 1920s it was discovered that follicular fluid from the pig ovary contained a factor(s) that caused cornification/keratinization of the vaginal epithelium in the rat (Allen and Doisy, 1923, JAMA, 81,819-821; Allen and Doisy, 1924, Am. J. Physiol., 69, 577-588). The so-called vaginal cornification response in rats subsequently provided a bioassay for testing estrogenicity. Vaginal epithelial cornification/keratinization in ovariectomized rats can be produced only by compounds considered to be true estrogens (Jones et al, 1973, Fert. Steril. 24, 284-291). […] Adult intact female CD rats were ovariectomized to induce estrogen deficiency. […] Castrate vaginal smears are indicative that complete ovanectomy was achieved. Treatment commenced following completion of the 7 days of smearing (day 0=first day of dosing). Animals were dosed, once daily for 7 consecutive days. Daily vaginal lavages continued to be obtained for 7 days after dosing was initiated in order to detect vaginal cornification, as an indication of an estrogenic response. A drop of vaginal washings was placed on a glass slide and examined by light microscopy to detect the presence or absence of cornified epithelial cells. Vaginal lavages were obtained prior to dosing on days 0-6 and prior to necropsy on day 7. The vaginal cornification bioassay was performed in order to determine the estrogenic profile of E4 when given subcutaneously (sc) to ovariectomized adult rats. E2 was used as a positive control. […] The vaginal cornification bioassay was performed in order to determine the estrogenic profile of E4 when given orally (po) to ovariectomized adult rats. EE was used as a positive control. […] A vaginal estrogenic response occurred in all rats (8/8) given 50 μg/kg/day EE po by day 7 (Table 2).

[2] = target: T1, human sex Hormone Binding Globulin (SHBG) (Homo sapiens, UniProt P04278); experiment: Competitive steroid-binding assay, SHBG; settings: [3H]DHT or [3H]estradiol as labeled ligands
T1 construct: made in house; host or cells: transgenic mouse (purified from serum)
T1 sequence (P04278 30-402): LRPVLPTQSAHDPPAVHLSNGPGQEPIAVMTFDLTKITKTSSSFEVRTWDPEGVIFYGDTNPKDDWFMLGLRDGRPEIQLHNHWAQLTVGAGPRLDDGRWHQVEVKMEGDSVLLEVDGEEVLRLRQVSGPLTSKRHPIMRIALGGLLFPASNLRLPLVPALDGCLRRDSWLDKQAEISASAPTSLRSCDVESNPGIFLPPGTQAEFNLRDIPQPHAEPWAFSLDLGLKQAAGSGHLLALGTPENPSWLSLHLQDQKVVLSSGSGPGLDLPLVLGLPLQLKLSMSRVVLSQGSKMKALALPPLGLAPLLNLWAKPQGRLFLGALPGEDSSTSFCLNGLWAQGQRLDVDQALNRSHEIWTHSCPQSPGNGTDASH
Method: Human SHBG was treated for 30 min at room temperature with a dextran-coated charcoal (DCC) suspension in phosphate buffered saline (PBS) to remove any steroid ligand. After centrifugation (2,000×g for 10 min) to sediment the DCC, the supernatant containing the human SHBG was diluted in PBS to a concentration of 1 nM based on its steroid binding capacity.
The average amounts of [^3H]labeled ligands bound to SHBG at each concentration of competitor (B) were expressed as a percentage of the average amounts of [^3H]labeled ligands bound to SHBG in the absence of competitor (B0), and were plotted against the concentration of competitor in each assay tube.

Compound: C#C[C@]1(O)CC[C@H]2[C@@H]3CCc4cc(O)ccc4[C@H]3CC[C@@]21C [EE, 17α-ethinylestradiol, reference compound]
- Number of Rats Exhibiting Estrogenic Response/Number of Rats Treated ([1]; po, Day 0): 0/8
- Number of Rats Exhibiting Estrogenic Response/Number of Rats Treated ([1]; po, Day 1): 1/8
- Number of Rats Exhibiting Estrogenic Response/Number of Rats Treated ([1]; po, Day 2): 3/8
- Number of Rats Exhibiting Estrogenic Response/Number of Rats Treated ([1]; po, Day 3): 8/8
- Number of Rats Exhibiting Estrogenic Response/Number of Rats Treated ([1]; po, Day 4): 8/8
- Number of Rats Exhibiting Estrogenic Response/Number of Rats Treated ([1]; po, Day 5): 8/8
- Number of Rats Exhibiting Estrogenic Response/Number of Rats Treated ([1]; po, Day 6): 8/8
- Number of Rats Exhibiting Estrogenic Response/Number of Rats Treated ([1]; po, Day 7): 8/8

Compound: C[C@]12CC[C@H]3[C@@H](CCC4=CC(=O)CC[C@@]43C)[C@@H]1CC[C@@H]2O [testosterone]
- relative binding affinity for human SHBG [2]: in this order, show an increased relative binding affinity

Compound: C[C@]12CCC(=O)C[C@@H]1CC[C@@H]1[C@@H]2CC[C@]2(C)[C@@H](O)CC[C@@H]12 [5α-dihydrotestosterone]
- relative binding affinity for human SHBG [2]: in this order, show an increased relative binding affinity

Compound: C[C@]12CC[C@@H]3c4ccc(O)cc4CC[C@H]3[C@@H]1CC[C@@H]2O [E2, 17β-estradiol, reference compound]
- Number of Rats Exhibiting Estrogenic Response/Number of Rats Treated ([1]; sc, Day 0): 0/8
- Number of Rats Exhibiting Estrogenic Response/Number of Rats Treated ([1]; sc, Day 1): 0/8
- Number of Rats Exhibiting Estrogenic Response/Number of Rats Treated ([1]; sc, Day 2): 8/8
- Number of Rats Exhibiting Estrogenic Response/Number of Rats Treated ([1]; sc, Day 3): 8/8
- Number of Rats Exhibiting Estrogenic Response/Number of Rats Treated ([1]; sc, Day 4): 8/8
- Number of Rats Exhibiting Estrogenic Response/Number of Rats Treated ([1]; sc, Day 5): 8/8
- Number of Rats Exhibiting Estrogenic Response/Number of Rats Treated ([1]; sc, Day 6): 8/8
- Number of Rats Exhibiting Estrogenic Response/Number of Rats Treated ([1]; sc, Day 7): 8/8
